EP0427799B1, “METHOD AND COMPOUNDS FOR AICA RIBOSIDE DELIVERY AND FOR LOWERING BLOOD GLUCOSE” (GENSIA, INC., priority 1989, dated 1990)

What was measured:
[1] = target: adenosine kinase (Homo sapiens, UniProt P55263); assay: Inhibition of adenosine kinase; assay type: biochemical
[2] = test system: ischemic heart tissue; assay: Adenosine, AICA riboside and ZMP levels in ischemic heart tissue; assay type: in vivo, rats; details: ischemic rat heart tissue
Method: Prodrug compounds of the present invention and AICA riboside were tested for their activity in enhancing the production of adenosine and increasing production of AICA riboside from ZMP in ischemic heart tissue in rats.
Samples of heart tissue after ischemia were analyzed for nucleoside and nucleotide levels. Samples were measured for adenosine, AICA riboside and ZMP concentrations by HPLC.

[3] = test system: liver glycogen; assay: Effect on liver glycogen in mice; assay type: in vivo; details: 750 mg/Kg
Method: (See Figures 9 and 10A to 10D). The glucose lowering effects of AICA riboside are related temporally to the generation and maintenance of liver ZMP levels in rats. (See Figures 11A and 11B).
Swiss Webster mice were treated with saline (as a control) or 750 mg/kg of AICA riboside administered intraperitoneally, six animals per group. The mice were sacrificed one hour post-administration The livers were removed and extracted. Liver glycogen was determined by the method of Dubois, et al., Anal. Chem. 28:350-356 (1956). Glucose was measured by the hexokinase method (See Example K).

[4] = test system: triglycerides; assay: Plasma triglyceride levels in diabetic rats, chronic treatment; assay type: in vivo; details: streptozotocin-induced diabetes in rats
Method: Rats were made diabetic by treatment with streptozocin (50 mg/kg IV) and then treated with either saline or AICA riboside (500 mg/kg, twice a day) for 22 days. Plasma triglyceride levels were analyzed 18 hours after the last injection of AICA riboside using the Sigma Procedure #334 Assay Kit (coupled assay employing lipase, glycerokinase, pyruvate kinase and lactate dehydrogenase) which measures decreases in OD₃₄₀ over time (NADH disappearance).

[5] = test system: serum glucose; assay: Plasma glucose levels in humans after intravenous infusion; assay type: in vivo
Method: Healthy male volunteers were given a 30-minute intravenous infusion of AICA riboside at doses of 25 mg/kg, 50 mg/kg or 100 mg/kg.
Plasma glucose levels were monitored over a four hour period during and following the 30 minute infusion. Plasma glucose was measured by clinical chemistry autoanalyzer. The onset of the serum glucose lowering effect was evident by the end of the AICA riboside infusion period and plasma glucose reached a nadir approximately 30 minutes after the AICA riboside infusion was stopped. Recovery to euglycemic levels was complete by about three hours.

[6] = test system: plasma glucose; assay: Plasma glucose in streptozocin-hyperglycemic rats; assay type: in vivo; details: rats made hyperglycemic with 50 mg/Kg streptozocin I.V.; doses as low as 100 mg/Kg I.P.
Method: This hypoglycemic effect may contribute to the anti-ischemic properties of the molecule. Ribose is known to lower blood glucose in several animal species, including man, in relatively high doses (on the order of about 1000 mg/kg) by an unknown mechanism, possibly by inhibition of phosphoglucomutase. Accordingly, in theory, AICA riboside could cause hypoglycemia at extremely high doses ([…]) due to its ability to deliver ribose phosphate to cells. Other means of increasing intracellular ribose such as treatment with ribose itself or other nucleosides and prodrugs and analogs of them which can be metabolized to yield ribose-1-phosphate (which is converted ribose-5-phosphate) or ribose-5-phosphate may also lower blood sugar. […] At higher doses of AICA riboside, hypoglycemic seizures and death were induced in rabbits and mice. We have found rats to also be sensitive to the hypoglycemic effects of AICA riboside. Initial studies were performed using non-fasted rats (Sprague Dawley) and mice (Swiss-Webster). […] In non-fasted mice the decrease of glucose levels at this dose was greater, On the order of 30-50%. In both cases the hypoglycemia was statistically significant at the p <.01 level. […] In fasted mice, AICA riboside is potent in lowering blood glucose. (See e.g., Figure 6). In fasted mice AICA riboside may cause seizures at doses of 500 mg/Kg and above. […]

[7] = in vivo; parameters: species or system dogs; details: dog
Method: The bioavailability of AICA riboside after oral administration of either AICA riboside or one of the AICA riboside prodrugs of the present invention was evaluated in dogs. Plasma concentrations of AICA riboside and intact prodrug were measured using HPLC. (See Dixon, R., et al., Res. Commun. Chem. Path. Pharm. 65:405-408 (1989)). Bioavailability of AICA riboside was evaluated in terms of the time required to reach maximum plasma concentration (Tmax), the maximum concentration achieved (Cmax) and the area under the plasma concentration-time curve (AUC) from time zero to the last measurable plasma concentration. Absolute bioavailability (F%) was calculated by dividing the AUC for AICA riboside following oral administration of the prodrug (or AICA riboside itself) by the AUC following intravenous administration of an equivalent amount of AICA riboside (100% bioavailability).

[8] = test system: skin flap; assay: Protection against ischemic injury in skin flap model; assay type: in vivo, rats; details: skin flap viability 3 days post-surgery; pretreatment 45 minutes before surgery (SOD at time of surgery)
Method: Compounds were tested for their activity in protecting against ischemic injury in a skin flap model in rats.
Animals were pretreated with AICA riboside or AICA riboside plus adenosine deaminase (ADA) 45 minutes before surgery or, as a positive control, superoxide dismutase (SOD) was used at the time of surgery. A skin flap was raised on the abdomen of a rat for 6 hours and then sewn down. The percent viability of the flaps was evaluated at 3 days post-surgery.
This effect was not as pronounced in the presence of ADA, supporting the importance of adenosine's protective role in this setting.

[9] = test system: plasma glucose; assay: Plasma glucose levels in non-fasted and fasted mice; assay type: in vivo, mice (Swiss-Webster); details: for reduced glucose levels: fasted mice (16 hours)
Method: Ribose is known to lower blood glucose in several animal species, including man, in relatively high doses (on the order of about 1000 mg/kg) by an unknown mechanism, possibly by inhibition of phosphoglucomutase. […] Initial studies were performed using non-fasted rats (Sprague Dawley) and mice (Swiss-Webster).
Male mice (Swiss-Webster) were injected IP with the indicated treatment. […] Ribose and AICA riboside were formulated in saline. Glucose levels were measured on plasma (heparinized blood centrifuged at 10,000 X g for ten minutes). Glucose levels were measured one hour after AICA riboside administration.

[10] = healthy male volunteers, 30-minute intravenous infusion

Chain of adenosine kinase (P55263 whole entry, species assumed): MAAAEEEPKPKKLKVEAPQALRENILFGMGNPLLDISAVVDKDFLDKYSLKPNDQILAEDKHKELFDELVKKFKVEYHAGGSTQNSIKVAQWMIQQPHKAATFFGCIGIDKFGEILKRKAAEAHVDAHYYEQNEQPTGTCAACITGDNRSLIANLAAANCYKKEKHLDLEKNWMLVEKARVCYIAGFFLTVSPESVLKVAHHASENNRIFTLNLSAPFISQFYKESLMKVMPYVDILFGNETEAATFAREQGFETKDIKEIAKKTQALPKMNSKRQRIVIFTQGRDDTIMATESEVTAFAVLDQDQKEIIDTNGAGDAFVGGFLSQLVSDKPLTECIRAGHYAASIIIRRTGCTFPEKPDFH

NC(=O)c1ncn([C@@H]2O[C@H](CO)[C@@H](O)[C@H]2O)c1N [AICA riboside, 1-β-D-ribofuranosyl-5-aminoimidazole-4-carboxamide]
inhibition of adenosine kinase [1]: weak inhibitor
Tissue Concentration Adenosine ([2]; Prodrug A at dose equimolar to AICA riboside): 409 ± 60 nmol/g
Tissue Concentration AICA Riboside ([2]; equimolar doses): 774 ± 73 nmol/g
increase of liver glycogen [3]: 55%
serum triglycerides [4]: lowers serum triglycerides
time of plasma glucose nadir after infusion was stopped [5, 10]: approximately 30 minutes
time to recovery to euglycemic levels [5, 10]: about three
effect on serum glucose ([5]; humans, 25 mg/kg intravenously over 30 minutes): significant reductions in serum glucose
effect on plasma glucose [6]: marked decreases in plasma glucose that approached euglycemic levels
AUC(0-t) ([7]; iv): 8300 ng·h/mL
F ([7]; iv): 100%
AUC(0-t) ([7]; po): 900 ng·h/mL
Cmax ([7]; po): 1100 ng/mL
Tmax ([7]; po): 45 min
bioavailability ([7]; po): 11%
% Viable [8]: 75%
doses that may cause seizures ([9]; fasted mice): ≥ 500 mg/kg
duration of reduced plasma glucose levels ([9]; fasted mice (2 hours), 500 mg/Kg): 2 to 3 h
reduced glucose levels ([9]; 250 mg/Kg): 50%
reduced glucose levels ([9]; 500 and 750 mg/Kg): 60%
decrease of glucose levels ([9]; non-fasted mice, 750 mg/Kg): 30-50%
